Assays:
MDA-MB-231 cells = experiment: Lattice light sheet imaging of mitosis, MDA-MB-231; format: cell-based, human; conditions: 15 µM
Method: (§1) MDA-MB-231, MiaPaca2, HMEC-1, SK-MEL-2 and UO-31 cells were seeded at 2–15 × 10^4 cells/mL in 8-well glass µ-slides (ibidi). […] SPY650-Tubulin, SPY555-DNA (both Spirochrome, Inc.), and Annexin V FITC (Sigma-Aldrich) were added at a final concentration of 1 in 1000. Cells were left to grow for 24 h before time-lapse live-cell data were acquired using a Lattice Light Sheet 7 (Zeiss). […] Aberration correction was set to a value of 170 to minimise aberrations as determined by imaging the Point Spread Function using 100 nm fluorescent microspheres. Data were collected with a frame time of 10 ms and a z step of 0.4 μm with 834 frames per 290 μm by 290 μm. Individual regions were imaged in parallel across six wells of the eight-well chamber slide. Data are presented as Maximum Intensity Projections (MIPs), and these MIPs were used for all downstream analysis. Tile regions were imaged for 24 h with 10 min intervals at 37 °C, 5% CO2. Analysis was performed using the MIPs of the different full fields of cells over the 24–48 h time period. Mitosis and mitosis arrest were classified through a combination of automated image analysis and manual validation. […] Small erroneous detected spots were further removed through a manually adjusted size filter. […] The mean intensity of all tracks was then measured to determine mitosis and mitosis arrest. […]

SK-MEL-2 cells [1] = experiment: NCI-60 cancer cell panel, SK-MEL-2; format: cell-based, human; conditions: 10 µM, 3 days
Method: (§2) Inhibitors were tested at 10 µM. Data shown is the mean of two technical replicates and is shown relative to the no-drug control, and relative to the time zero number of cells.

DLD-1 cells = experiment: Colony formation assay, DLD-1; format: cell-based, human; conditions: 10 µM, 7–12 days
Method: (§3) Cells were seeded at low density (200–4000 cells per well) after initial optimisation in a six-well tissue culture-treated plate (Falcon). Twenty-four hours post seeding, media was replaced, and the inhibitor was added. Cells were left to grow into colonies between 7 and 12 days, depending on the cell line. For analysis, the media was removed, and the cells were fixed with 10% (w/v) formalin for 10 min. Colonies were stained with crystal violet (Sigma-Aldrich, 0.5% [w/v] in 20% [v/v] MeOH) for 10 min and washed thrice with distilled H2O. Plates were imaged using the ChemiDoc imaging system (Bio-Rad) and analysed using the ImageJ ColonyArea plugin as described previously (Guzmán et al, [2014]).

SK-MEL-2 cells [2] = experiment: Colony formation assay, SK-MEL-2; format: cell-based, human; conditions: 10 µM, 7–12 days
Method: as §3

UO-31 cells = experiment: Colony formation assay, UO-31; format: cell-based, human; conditions: 10 µM, 7–12 days
Method: as §3

SK-MEL-2 cells [3] = experiment: Lattice light sheet imaging of mitosis, SK-MEL-2; format: cell-based, human; conditions: 15 µM, imaged 24-48 h
Method: as §1

UO-31 cell line = experiment: NCI-60 cancer cell panel, UO-31; format: cell-based, human; conditions: 10 µM, 3 days
Method: as §2

MDA-MB-468 cells = experiment: Colony formation assay, MDA-MB-468; format: cell-based, human; conditions: 10 µM, 7–12 days
Method: as §3

[4] = test system: T1, USP9X Δβ catalytic domain; experiment: Ub-PA suicide probe assay, USP9X Δβ; format: biochemical, human; conditions: 50 µM compound
T1 construct: His/SUMO (pOPIN-S vector) (N, cleaved yes); made in house; host or cells: E. coli BL21
From the text: An expression construct for the USP9X catalytic domain (aa 1551–1970, […]: Q93008-1), was codon optimised for bacterial expression, synthesised in gBlock format (Integrated DNA Technologies) and cloned into the pOPIN-S vector (Berrow et al, [2007]), which was digested with KpnI and HindIII using In-Fusion™ HD cloning (Takara Clontech). For SPR, constructs were ordered with a GGS linker followed by a C-terminal AviTag™ (aa sequence: […]) and were cloned as above. For the USP9X Δβ catalytic domain a deletion construct ΔE1924-K1943 and for USP9X/USP24 chimera, a construct with USP9X Y1757-A1766 replaced with the USP24 (NCBI Reference Sequence: NP_056121) aa motif […] was used. All constructs were confirmed by Sanger sequencing (AGRF).
For inhibitor activity assays, USP9X catalytic domain (di-ubiquitin cleavage assay: 750 nM, ubiquitin-probe assays: 2.5 µM) was pre-incubated with USP9X inhibitors for 30 min at ambient temperature and subsequently mixed with di-ubiquitin (final concentration 2 µM) in assay buffer (25 mM Tris [pH 8.0], 150 mM NaCl, 10 mM DTT) at pH 8.0 or was mixed with ubiquitin-propargylamide (Ub-PA)/ubiquitin-vinyl sulfonate (Ub-VS) probes at a final concentration of 10 µM in assay buffer. […]

[5] = Caco-2 cell permeability assessment; format: in vitro ADME; conditions: human, 10 µM donor
Method: The apparent permeability coefficient was assessed using Caco-2 cell monolayers as described previously (Katneni et al, [2018]). […] Compound flux was assessed over a period of up to 120 min, with samples taken from the acceptor chamber at multiple time points. Samples from the donor chamber were taken at the beginning and at the end of the experiment. The mass balance at the end of the permeability experiment was calculated according to the following equation, where compound mass was calculated as the product of molar concentration and volume of donor or acceptor solution: Mass balance%=Massfinal donor+Massfinal acceptor/Massinitial donorx100
The apparent permeability coefficient (Papp) was determined based on the rate of compound appearance in acceptor buffer at steady state using the following equation: Papp(cm/s)=dQ/dtx1/cinitial donorx A dQ/dt : apparent steady-state transport rate (µmol/s)
A: surface area of Caco-2 monolayer (0.3 cm^2 in the test system used)
cinitial donor : concentration in the donor at the start of experiment (µmol/cm^3).

Cc1[nH]c2ccc(C(=O)N3CCN(S(=O)(=O)c4ccc5c(c4)OCCO5)CC3)cc2c1C [WEHI-092]
apoptosis on metaphase arrest (Annexin V uptake), MDA-MB-231 (MDA-MB-231 cells): did not trigger apoptosis | cell division phenotype, MDA-MB-231 (MDA-MB-231 cells; imaged 24-48 h): significant defects in cell division | cell growth, SK-MEL-2 (SK-MEL-2 cells [1]): stalling cell growth completely | clonogenic potential, DLD-1 (DLD-1 cells): strong decrease in proliferative capacity | clonogenic potential, SK-MEL-2 (SK-MEL-2 cells [2]): sensitive | clonogenic potential, UO-31 (UO-31 cells): sensitive | cell division phenotype, SK-MEL-2 (SK-MEL-2 cells [3]): significant defects in cell division | cell killing, UO-31 (UO-31 cell line): cell death | clonogenic potential, MDA-MB-468 (MDA-MB-468 cells): strong decrease in proliferative capacity | modification of USP9X Δβ with Ub-PA probe [4]: unable to be modified by the probe | Papp A→B at 10 µM ([5]; Caco-2, apical-to-basolateral): 42.6 ×10⁻⁶ cm/s | Papp B→A at 10 µM ([5]; Caco-2, basolateral-to-apical): 70.4 ×10⁻⁶ cm/s

Reference: article PMC13144739, “Global analysis of cancer cell responses to USP9X inhibition” (The EMBO Journal, 2026)
